The source made the active and inactive calls. Cut-off read from the data, not from the text of the source: actives have a measured IC50 and inactives only a lower limit.
Tests used:
Assay type in all cases: functional
[1] = biological target: T1, Sentrin-specific protease 7 (Homo sapiens, UniProt Q9BQF6);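 note: Luminescence-based dose-response confirmation of ultra-high-throughput screening hits, measuring inhibition of SENP7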
T1 sequence (Q9BQF6 whole entry): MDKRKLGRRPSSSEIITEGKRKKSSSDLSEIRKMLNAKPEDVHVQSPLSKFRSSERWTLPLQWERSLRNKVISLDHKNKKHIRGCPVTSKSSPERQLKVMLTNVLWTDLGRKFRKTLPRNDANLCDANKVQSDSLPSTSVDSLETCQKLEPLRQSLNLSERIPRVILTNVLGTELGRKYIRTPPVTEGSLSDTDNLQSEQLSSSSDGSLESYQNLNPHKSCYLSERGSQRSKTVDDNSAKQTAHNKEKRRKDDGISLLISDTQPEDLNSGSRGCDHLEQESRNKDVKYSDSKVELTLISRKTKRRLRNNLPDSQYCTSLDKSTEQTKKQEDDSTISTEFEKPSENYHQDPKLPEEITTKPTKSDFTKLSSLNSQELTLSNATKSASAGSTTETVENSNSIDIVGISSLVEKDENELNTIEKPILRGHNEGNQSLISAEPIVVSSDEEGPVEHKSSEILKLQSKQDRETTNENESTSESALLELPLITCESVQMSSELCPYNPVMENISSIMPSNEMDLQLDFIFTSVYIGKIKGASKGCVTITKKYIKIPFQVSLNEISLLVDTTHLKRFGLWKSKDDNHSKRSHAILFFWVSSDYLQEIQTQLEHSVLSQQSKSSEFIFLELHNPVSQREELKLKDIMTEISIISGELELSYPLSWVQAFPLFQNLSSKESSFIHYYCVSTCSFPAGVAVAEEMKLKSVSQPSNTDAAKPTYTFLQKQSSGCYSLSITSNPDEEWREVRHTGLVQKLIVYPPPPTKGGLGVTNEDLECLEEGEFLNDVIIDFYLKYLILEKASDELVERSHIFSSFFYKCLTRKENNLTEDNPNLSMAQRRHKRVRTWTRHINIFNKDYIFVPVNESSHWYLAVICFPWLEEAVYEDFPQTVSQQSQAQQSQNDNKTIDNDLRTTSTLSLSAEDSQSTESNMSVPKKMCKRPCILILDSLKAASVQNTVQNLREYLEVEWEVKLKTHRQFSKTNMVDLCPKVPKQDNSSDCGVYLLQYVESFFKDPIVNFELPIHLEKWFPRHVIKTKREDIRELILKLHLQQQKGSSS

Caspase-3 = biological target: T2, Caspase-3 (Homo sapiens, UniProt P42574);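 note: Dose-response selectivity test against caspase-3 for candidate inhibitors of sentrin-specific proteases (SENPs)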
T2 sequence (P42574 whole entry): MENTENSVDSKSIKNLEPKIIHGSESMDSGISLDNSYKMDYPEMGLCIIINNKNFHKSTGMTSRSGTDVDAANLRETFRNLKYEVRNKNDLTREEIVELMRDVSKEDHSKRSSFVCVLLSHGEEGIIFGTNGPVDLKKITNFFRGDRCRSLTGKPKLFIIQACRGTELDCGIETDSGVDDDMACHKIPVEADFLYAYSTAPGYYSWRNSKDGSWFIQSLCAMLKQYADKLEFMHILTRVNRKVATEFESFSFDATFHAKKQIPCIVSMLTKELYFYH

[2] = biological target: T3, Sentrin-specific protease 8 (Homo sapiens, UniProt Q96LD8);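 note: luminescence read-out of SENP8 inhibition, dose-response confirmation following an ultra-high-throughput screen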
T3 sequence (Q96LD8 whole entry): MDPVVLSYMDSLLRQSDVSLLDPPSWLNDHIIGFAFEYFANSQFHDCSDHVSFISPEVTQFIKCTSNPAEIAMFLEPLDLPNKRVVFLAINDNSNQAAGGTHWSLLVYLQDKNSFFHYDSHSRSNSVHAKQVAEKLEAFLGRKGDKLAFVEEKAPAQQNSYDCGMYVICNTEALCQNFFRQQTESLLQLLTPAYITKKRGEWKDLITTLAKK

[3] = biological target: T4, Sentrin-specific protease 6 (Homo sapiens, UniProt Q9GZR1);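 note: Luminescence-based dose-response confirmatory assay of SENP6 inhibition, following up an ultra-high-throughput screen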
T4 sequence (Q9GZR1 whole entry): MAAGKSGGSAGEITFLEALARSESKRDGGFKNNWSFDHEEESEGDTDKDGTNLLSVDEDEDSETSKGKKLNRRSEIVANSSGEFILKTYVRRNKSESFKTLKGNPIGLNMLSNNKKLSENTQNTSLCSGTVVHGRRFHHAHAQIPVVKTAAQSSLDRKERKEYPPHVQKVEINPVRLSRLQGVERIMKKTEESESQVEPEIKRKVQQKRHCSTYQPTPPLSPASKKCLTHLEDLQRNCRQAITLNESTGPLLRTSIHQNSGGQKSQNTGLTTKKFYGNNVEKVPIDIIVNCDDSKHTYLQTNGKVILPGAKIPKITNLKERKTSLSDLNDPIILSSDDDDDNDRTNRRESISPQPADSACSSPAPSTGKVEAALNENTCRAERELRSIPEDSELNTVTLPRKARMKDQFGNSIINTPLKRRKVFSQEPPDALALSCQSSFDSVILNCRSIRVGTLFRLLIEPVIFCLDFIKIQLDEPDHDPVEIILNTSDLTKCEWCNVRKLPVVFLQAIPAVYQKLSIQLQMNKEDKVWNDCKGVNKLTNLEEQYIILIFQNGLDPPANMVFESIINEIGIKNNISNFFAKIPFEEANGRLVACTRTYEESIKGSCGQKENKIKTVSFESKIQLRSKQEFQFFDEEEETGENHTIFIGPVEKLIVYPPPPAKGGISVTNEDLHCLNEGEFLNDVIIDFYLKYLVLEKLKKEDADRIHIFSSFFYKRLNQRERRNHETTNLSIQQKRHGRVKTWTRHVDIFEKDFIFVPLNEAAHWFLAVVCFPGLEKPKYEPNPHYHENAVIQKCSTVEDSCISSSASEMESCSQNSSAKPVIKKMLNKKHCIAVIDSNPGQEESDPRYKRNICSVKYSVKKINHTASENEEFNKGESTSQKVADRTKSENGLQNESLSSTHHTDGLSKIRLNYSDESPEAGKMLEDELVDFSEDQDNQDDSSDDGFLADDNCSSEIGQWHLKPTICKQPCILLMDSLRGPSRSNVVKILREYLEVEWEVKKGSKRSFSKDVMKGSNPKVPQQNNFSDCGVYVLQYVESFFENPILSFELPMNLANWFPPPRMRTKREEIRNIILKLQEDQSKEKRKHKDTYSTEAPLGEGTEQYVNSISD

| Compound | IC50 [1] | IC50 (Caspase-3) | IC50 [2] | IC50 [3] |
| --- | --- | --- | --- | --- |
| C=CCn1c(NC(=O)c2ccccc2Cl)c(C#N)c2nc3ccccc3nc21 | 3.08 µM (active) | 5.6 µM (active) | < 1.55 µM (active) | < 1.55 µM (active) |
| O=c1oc2c(O)cccc2cc1-c1nc2ccccc2[nH]1 | 0.955 µM (active) | 0.95 µM (active) | 2.65 µM (active) | 1.26 µM (active) |
| CCOC(=O)c1ccc(Nc2cc3ccccc3c(O)n2)cc1 | 10.1 µM (active) | 8.27 µM (active) | 13.6 µM (active) | 6.63 µM (active) |

— ChEMBL document CHEMBL1201862, “PubChem BioAssay data set” (2004)
